In patent US8716475B2, “2-aminopyrimidine modulators of the histamine H4 receptor” (Janssen Pharmaceutica NV, priority 2007, dated 2014):

These compounds were tested against T1, human H4 receptor (Homo sapiens, UniProt Q9H3N8) (assay: Binding Assay on Recombinant Human Histamine H4 Receptor). Conditions: Table 2, data marked with an asterisk (*): obtained by the cell harvester method; [3H] histamine competition binding, SK-N-MC membranes.
T1 construct: expressed in transfected cells
Method in brief: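 Radioligand binding used membranes from SK-N-MC cells stably or transiently expressing human H4, prepared in 50 mM Tris/5 mM EDTA. Nonspecific binding was defined with 100 μM histamine. Bound radioactivity was counted after filtration on PEI-treated GF/C filters, and ">" values are the highest concentration tested.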

T1 sequence (Q9H3N8 whole entry): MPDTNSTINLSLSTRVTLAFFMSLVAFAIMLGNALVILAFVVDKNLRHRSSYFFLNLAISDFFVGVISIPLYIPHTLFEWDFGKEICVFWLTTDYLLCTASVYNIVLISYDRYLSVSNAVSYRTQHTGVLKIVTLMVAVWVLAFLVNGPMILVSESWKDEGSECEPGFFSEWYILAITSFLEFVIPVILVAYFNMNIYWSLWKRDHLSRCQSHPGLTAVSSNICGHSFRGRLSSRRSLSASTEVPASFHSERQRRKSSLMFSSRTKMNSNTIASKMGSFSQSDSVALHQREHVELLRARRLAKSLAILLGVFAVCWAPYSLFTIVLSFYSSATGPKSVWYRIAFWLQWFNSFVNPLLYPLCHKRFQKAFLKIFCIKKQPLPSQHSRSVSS

| SMILES | Ki |
| --- | --- |
| CN(CCN)c1cc(Cc2ccccc2)nc(N)n1 [Example 250, N^4-(2-Amino-ethyl)-6-benzyl-N^4-methyl-pyrimidine-2,4-diamine] | 564 nM |
| Nc1nc(C2Cc3ccccc3C2)cc(N2CC3CCCNC3C2)n1 (centres unmarked) [Example 251, 4-Indan-2-yl-6-(octahydro-pyrrolo[3,4-b]pyridin-6-yl)-pyrimidin-2-ylamine] | 20 nM |

Same assay, conditions: Table 2; [3H] histamine competition binding, membranes of SK-N-MC cells transfected with human H4 receptor; average of results

| SMILES | Ki |
| --- | --- |
| NCCNc1cc(Cc2cccs2)nc(N)n1 [Example 218, N^4-(2-Amino-ethyl)-6-thiophen-2-ylmethyl-pyrimidine-2,4-diamine] | 20 nM |
| COCc1cc(NCCN)nc(N)n1 [Example 219, N^4-(2-Amino-ethyl)-6-methoxymethyl-pyrimidine-2,4-diamine] | 890 nM |
| CN[C@@H]1CCN(c2cc(COC)nc(N)n2)C1 [Example 221, (R)-4-Methoxymethyl-6-(3-methylamino-pyrrolidin-1-yl)-pyrimidin-2-ylamine] | 43 nM |
| COCc1cc(N2CC[C@@H](N)C2)nc(N)n1 [Example 222, (R)-4-(3-Amino-pyrrolidin-1-yl)-6-methoxymethyl-pyrimidin-2-ylamine] | 23 nM |
| COCc1cc(N2CCN(C)CC2)nc(N)n1 [Example 223, 4-Methoxymethyl-6-(4-methyl-piperazin-1-yl)-pyrimidin-2-ylamine] | 15 nM |
| COCc1cc(N2CCNCC2)nc(N)n1 [Example 224, 4-Methoxymethyl-6-piperazin-1-yl-pyrimidin-2-ylamine] | 26 nM |
| COCc1cc(N2C[C@H]3CCCN[C@H]3C2)nc(N)n1 [Example 226, (R,R)-4-Methoxymethyl-6-(octahydro-pyrrolo[3,4-b]pyridin-6-yl)-pyrimidin-2-ylamine] | 14 nM |
| CN1CCN(c2cc(CC3CCCO3)nc(N)n2)CC1 (centres unmarked) [Example 227, 4-(4-Methyl-piperazin-1-yl)-6-(tetrahydro-furan-2-ylmethyl)-pyrimidin-2-ylamine] | 17 nM |
| CN[C@@H]1CCN(c2cc(CC3CCCO3)nc(N)n2)C1 (stereo partly drawn) [Example 228, (R)-4-(3-Methylamino-pyrrolidin-1-yl)-6-(tetrahydro-furan-2-ylmethyl)-pyrimidin-2-ylamine] | 91 nM |
| CN1C[C@@H]2CN(c3cc(CC4CCCO4)nc(N)n3)C[C@@H]2C1 (stereo partly drawn) [Example 229, 4-(cis-5-Methyl-hexahydro-pyrrolo[3,4-c]pyrrol-2-yl)-6-(tetrahydro-furan-2-ylmethyl)-pyrimidin-2-ylamine] | 360 nM |
| Nc1nc(CC2CCCO2)cc(N2CCNCC2)n1 (centres unmarked) [Example 230, 4-piperazin-1-yl-6-(tetrahydro-furan-2-ylmethyl)-pyrimidin-2-ylamine] | 25 nM |
| Nc1nc(CC2CCCO2)cc(N2CC3CCCNC3C2)n1 (stereo not drawn) [Example 231, 4-(cis-Octahydro-pyrrolo[3,4-b]pyridin-6-yl)-6-(tetrahydro-furan-2-ylmethyl)-pyrimidin-2-ylamine] | 59 nM |
| CN1CCN(c2cc(Cc3ccc(Cl)cc3)nc(N)n2)CC1 [Example 232, 4-(4-Chloro-benzyl)-6-(4-methyl-piperazin-1-yl)-pyrimidin-2-ylamine] | 8 nM |
| Nc1nc(Cc2ccc(Cl)cc2)cc(N2CCNCC2)n1 [Example 233, 4-(4-Chloro-benzyl)-6-piperazin-1-yl-pyrimidin-2-ylamine] | 12 nM |
| CN[C@@H]1CCN(c2cc(Cc3ccc(Cl)cc3)nc(N)n2)C1 [Example 234, (R)-4-(4-Chloro-benzyl)-6-(3-methylamino-pyrrolidin-1-yl)-pyrimidin-2-ylamine] | 18 nM |
| Nc1nc(Cc2ccc(Cl)cc2)cc(N2CC[C@@H](N)C2)n1 [Example 235, (R)-4-(3-Amino-pyrrolidin-1-yl)-6-(4-chloro-benzyl)-pyrimidin-2-ylamine] | 140 nM |
| CN1C[C@@H]2CN(c3cc(Cc4ccc(Cl)cc4)nc(N)n3)C[C@@H]2C1 [Example 236, 4-(4-Chloro-benzyl)-6-(cis-5-methyl-hexahydro-pyrrolo[3,4-c]pyrrol-2-yl)-pyrimidin-2-ylamine] | 249 nM |
| Nc1nc(Cc2ccc(Cl)cc2)cc(N2C[C@H]3CNC[C@H]3C2)n1 [Example 237, 4-(4-Chloro-benzyl)-6-(cis-hexahydro-pyrrolo[3,4-c]pyrrol-2-yl)-pyrimidin-2-ylamine] | 257 nM |
| CN(CCN)c1cc(Cc2ccc(Cl)cc2)nc(N)n1 [Example 238, N^4-(2-Amino-ethyl)-6-(4-chloro-benzyl)-N^4-methyl-pyrimidine-2,4-diamine] | 1770 nM |
| CCOCc1cc(N2CCN(C)CC2)nc(N)n1 [Example 239, 4-Ethyoxymethyl-6-(4-methyl-piperazin-1-yl)-pyrimidin-2-ylamine] | 29 nM |
| CCOCc1cc(N2CCNCC2)nc(N)n1 [Example 240, 4-Ethoxymethyl-6-piperazin-1-yl-pyrimidin-2-ylamine] | 25 nM |
| CCOCc1cc(N2CC[C@@H](NC)C2)nc(N)n1 [Example 241, (R)-Ethoxymethyl-6-(3-methylamino-pyrrolidin-1-yl)-pyrimidin-2-ylamine] | 31 nM |
| CCOCc1cc(N2CC[C@@H](N)C2)nc(N)n1 [Example 242, (R)-Ethoxymethyl-6-(3-amino-pyrrolidin-1-yl)-pyrimidin-2-ylamine] | 22 nM |
| CC(C)OCc1cc(N2CCN(C)CC2)nc(N)n1 [Example 246, 4-Isopropoxymethyl-6-(4-methyl-piperazin-1-yl)-pyrimidin-2-ylamine] | 32 nM |
| Nc1nc(CCc2ccccc2)cc(N2CCNCC2)n1 [Example 247, 4-Phenethyl-6-piperazin-1-yl-pyrimidin-2-ylamine] | 3 nM |
| Nc1nc(CCc2ccccc2)cc(N2CC(N)C2)n1 [Example 248, 4-(3-Amino-azetidin-1-yl)-6-phenethyl-pyrimidin-2-ylamine] | 9 nM |
| Nc1nc(C2CCOCC2)cc(N2CC[C@@H](N)C2)n1 [Example 249, (R)-4-(3-Amino-pyrrolidin-1-yl)-6-(tetrahydro-pyran-4-yl)-pyrimidin-2-ylamine] | 87 nM |
| Nc1nc2c(c(N3CC(N)C3)n1)COCC2 [Example 252, 4-(3-Amino-azetidin-1-yl)-7,8-dihydro-5H-pyrano[4,3-d]pyrimidin-2-ylamine] | > 10000 nM |
| Nc1nc2c(c(N3CC(N)C3)n1)CCCC2 [Example 253, 4-(3-Amino-azetidin-1-yl)-5,6,7,8-tetrahydro-quinazolin-2-ylamine] | > 10000 nM |
| CN1C[C@@H]2CN(c3nc(N)nc4c3COCC4)C[C@@H]2C1 [Example 254, 4-(cis-5-Methyl-hexahydro-pyrrolo[3,4-c]pyrrol-2-yl)-7,8-dihydro-5H-pyranol-[4,3-d]pyrimidin-2-ylamine] | > 10000 nM |
